Results taken from the kinase profiling compilation of Christmann-Franck et al. (2016).

How the values were obtained:
Assay in all cases: KINOMEscan competition binding
Conditions in all cases: compound 10.0 µM
[1] = target: MTOR (human) (UniProt P42345)
[2] = target: KIT (human) (UniProt P10721)
[3] = target: OXSR1 (human) (UniProt O95747)
[4] = target: DYRK1A (human) (UniProt Q13627)
[5] = target: SGK3 (human) (UniProt Q96BR1)
[6] = target: SIK3 (human) (UniProt Q9Y2K2)
[7] = target: STK39 (human) (UniProt Q9UEW8)
[8] = target: PIP5K1C (human) (UniProt O60331)
[9] = target: DDR1 (human) (UniProt Q08345)
[10] = target: MAST1 (human) (UniProt Q9Y2H9)
[11] = target: GRK7 (human) (UniProt Q8WTQ7)
[12] = target: STK38 (human) (UniProt Q15208)
[13] = tested on: FLT3 (human), P36888 [K663Q]
[14] = target: SBK1 (human) (UniProt Q52WX2)
[15] = target: MAP2K5 (human) (UniProt Q13163)
[16] = tested on: PIK3CA (human), P42336 [H1047Y]
[17] = target: NIM1 (human) (UniProt Q8IY84)
[18] = target: TAOK2 (human) (UniProt Q9UL54)
[19] = target: PRPF4B (human) (UniProt Q13523)
[20] = target: HIPK3 (human) (UniProt Q9H422)
[21] = target: PI4KB (human) (UniProt Q9UBF8)
[22] = tested on: EGFR (human), P00533 [L861Q]
[23] = target: BTK (human) (UniProt Q06187)
[24] = target: EGFR (human) (UniProt P00533)
[25] = target: PRKCI (human) (UniProt P41743)
[26] = tested on: PIK3CA (human), P42336 [E545A]
[27] = target: CDK4 CCND3 (human) (UniProt P11802+P30281)
[28] = tested on: EGFR (human), P00533 [746-750 del]
[29] = target: MAP3K6 (human) (UniProt O95382)
[30] = tested on: PIK3CA (human), P42336 [Q546K]
[31] = tested on: PIK3CA (human), P42336 [I800L]
[32] = target: MYLK3 (human) (UniProt Q32MK0)
[33] = target: CRK2 (P.falciparum) (UniProt P61075)
[34] = target: MAP3K1 (human) (UniProt Q13233)
[35] = target: DSTYK (human) (UniProt Q6XUX3)
[36] = target: NEK11 (human) (UniProt Q8NG66)
[37] = target: MAP3K2 (human) (UniProt Q9Y2U5)
[38] = target: PIK3CA (human) (UniProt P42336)
[39] = target: CASK (human) (UniProt O14936)
[40] = target: BRAF (human) (UniProt P15056)

KIT (human), sequence (P10721 whole entry, looked up): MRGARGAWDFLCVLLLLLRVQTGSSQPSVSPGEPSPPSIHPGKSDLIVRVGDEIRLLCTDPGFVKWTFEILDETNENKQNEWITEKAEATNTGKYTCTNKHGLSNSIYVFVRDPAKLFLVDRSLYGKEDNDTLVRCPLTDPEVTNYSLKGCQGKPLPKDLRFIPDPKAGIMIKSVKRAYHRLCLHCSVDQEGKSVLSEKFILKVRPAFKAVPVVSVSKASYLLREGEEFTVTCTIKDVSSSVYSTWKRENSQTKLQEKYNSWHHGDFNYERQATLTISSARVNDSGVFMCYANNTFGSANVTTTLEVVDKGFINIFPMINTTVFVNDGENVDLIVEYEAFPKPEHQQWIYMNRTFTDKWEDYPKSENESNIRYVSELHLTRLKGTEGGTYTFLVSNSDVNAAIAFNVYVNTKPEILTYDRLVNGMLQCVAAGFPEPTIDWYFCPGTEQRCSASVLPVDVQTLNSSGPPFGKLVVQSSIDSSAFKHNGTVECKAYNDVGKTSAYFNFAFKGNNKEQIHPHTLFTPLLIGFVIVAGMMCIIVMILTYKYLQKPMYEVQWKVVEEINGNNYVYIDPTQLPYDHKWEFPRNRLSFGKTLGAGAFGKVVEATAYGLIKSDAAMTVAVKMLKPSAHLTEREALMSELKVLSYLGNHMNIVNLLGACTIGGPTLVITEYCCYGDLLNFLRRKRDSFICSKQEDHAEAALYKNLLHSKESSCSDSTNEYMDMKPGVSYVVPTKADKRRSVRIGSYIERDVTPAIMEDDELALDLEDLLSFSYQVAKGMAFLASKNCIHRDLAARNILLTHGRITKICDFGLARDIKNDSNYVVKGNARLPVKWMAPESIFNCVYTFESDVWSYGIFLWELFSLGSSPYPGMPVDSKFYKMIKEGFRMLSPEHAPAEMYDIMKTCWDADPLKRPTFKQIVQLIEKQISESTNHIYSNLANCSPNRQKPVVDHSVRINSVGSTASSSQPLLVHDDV
CASK (human), sequence (O14936 whole entry, looked up): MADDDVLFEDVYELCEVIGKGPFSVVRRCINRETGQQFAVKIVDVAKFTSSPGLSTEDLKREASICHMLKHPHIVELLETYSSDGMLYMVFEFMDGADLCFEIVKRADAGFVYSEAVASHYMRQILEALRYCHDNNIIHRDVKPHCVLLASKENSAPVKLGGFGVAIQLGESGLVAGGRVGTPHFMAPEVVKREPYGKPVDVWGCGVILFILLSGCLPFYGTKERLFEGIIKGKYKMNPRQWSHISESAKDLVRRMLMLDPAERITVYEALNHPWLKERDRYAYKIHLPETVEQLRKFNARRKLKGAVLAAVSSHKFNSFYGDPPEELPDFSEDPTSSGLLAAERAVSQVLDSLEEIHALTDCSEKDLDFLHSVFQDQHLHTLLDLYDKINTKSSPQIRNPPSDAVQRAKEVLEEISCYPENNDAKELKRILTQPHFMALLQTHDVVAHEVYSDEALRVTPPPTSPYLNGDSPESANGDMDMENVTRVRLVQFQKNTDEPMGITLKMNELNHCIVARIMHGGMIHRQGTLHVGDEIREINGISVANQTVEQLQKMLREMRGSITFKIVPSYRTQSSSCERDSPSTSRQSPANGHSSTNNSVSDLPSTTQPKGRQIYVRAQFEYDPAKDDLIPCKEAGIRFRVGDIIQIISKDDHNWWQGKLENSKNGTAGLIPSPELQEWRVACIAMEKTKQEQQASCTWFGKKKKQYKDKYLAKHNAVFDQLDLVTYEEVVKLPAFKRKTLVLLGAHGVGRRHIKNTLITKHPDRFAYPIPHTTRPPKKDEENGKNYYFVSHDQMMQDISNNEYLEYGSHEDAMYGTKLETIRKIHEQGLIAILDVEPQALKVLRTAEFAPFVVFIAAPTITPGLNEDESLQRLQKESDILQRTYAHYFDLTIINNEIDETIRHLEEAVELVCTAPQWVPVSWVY
PIK3CA (human), P42336 [I800L], sequence (P42336 whole entry I800L, looked up): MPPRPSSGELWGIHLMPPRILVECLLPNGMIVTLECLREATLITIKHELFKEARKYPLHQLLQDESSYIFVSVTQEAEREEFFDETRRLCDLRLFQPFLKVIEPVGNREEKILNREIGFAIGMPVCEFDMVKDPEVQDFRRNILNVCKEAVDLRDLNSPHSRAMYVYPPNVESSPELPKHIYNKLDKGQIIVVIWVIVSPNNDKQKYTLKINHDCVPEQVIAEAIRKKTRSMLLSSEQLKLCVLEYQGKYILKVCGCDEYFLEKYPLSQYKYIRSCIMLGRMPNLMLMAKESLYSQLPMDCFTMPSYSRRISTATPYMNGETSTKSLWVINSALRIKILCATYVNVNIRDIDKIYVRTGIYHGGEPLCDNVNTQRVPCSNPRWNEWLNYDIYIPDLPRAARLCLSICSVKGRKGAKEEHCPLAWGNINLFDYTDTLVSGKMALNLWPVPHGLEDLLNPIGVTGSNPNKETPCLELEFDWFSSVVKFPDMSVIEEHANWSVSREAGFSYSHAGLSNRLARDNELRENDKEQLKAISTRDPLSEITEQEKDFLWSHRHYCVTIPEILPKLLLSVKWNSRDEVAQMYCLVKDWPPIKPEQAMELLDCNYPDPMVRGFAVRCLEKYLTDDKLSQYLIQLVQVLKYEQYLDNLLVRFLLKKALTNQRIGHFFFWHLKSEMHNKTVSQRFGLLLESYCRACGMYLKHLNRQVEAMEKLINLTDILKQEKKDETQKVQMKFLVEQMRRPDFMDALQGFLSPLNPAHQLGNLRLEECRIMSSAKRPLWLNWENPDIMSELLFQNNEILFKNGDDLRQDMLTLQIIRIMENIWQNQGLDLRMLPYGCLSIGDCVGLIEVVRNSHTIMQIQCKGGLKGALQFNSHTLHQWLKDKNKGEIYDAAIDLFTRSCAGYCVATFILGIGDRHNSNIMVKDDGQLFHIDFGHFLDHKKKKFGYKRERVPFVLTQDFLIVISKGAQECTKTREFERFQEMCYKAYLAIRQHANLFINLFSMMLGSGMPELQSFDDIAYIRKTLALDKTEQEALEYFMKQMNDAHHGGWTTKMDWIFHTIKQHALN
NEK11 (human), sequence (Q8NG66 whole entry, looked up): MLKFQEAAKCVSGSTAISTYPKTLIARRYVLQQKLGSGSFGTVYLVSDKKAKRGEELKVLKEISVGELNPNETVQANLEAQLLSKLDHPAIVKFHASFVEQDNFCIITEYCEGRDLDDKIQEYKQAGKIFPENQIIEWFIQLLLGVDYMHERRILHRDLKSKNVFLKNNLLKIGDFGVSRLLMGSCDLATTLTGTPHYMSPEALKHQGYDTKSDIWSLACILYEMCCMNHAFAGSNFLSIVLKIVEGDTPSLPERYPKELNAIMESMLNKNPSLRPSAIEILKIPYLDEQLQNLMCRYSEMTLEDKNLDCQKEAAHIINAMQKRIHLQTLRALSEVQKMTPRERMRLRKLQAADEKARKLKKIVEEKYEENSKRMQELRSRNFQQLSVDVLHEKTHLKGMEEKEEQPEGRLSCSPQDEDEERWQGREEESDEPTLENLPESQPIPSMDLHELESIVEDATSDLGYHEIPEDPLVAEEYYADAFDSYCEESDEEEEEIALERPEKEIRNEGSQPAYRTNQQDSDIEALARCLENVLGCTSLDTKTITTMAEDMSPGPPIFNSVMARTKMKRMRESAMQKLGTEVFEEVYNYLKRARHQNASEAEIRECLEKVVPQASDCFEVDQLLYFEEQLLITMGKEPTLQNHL
DSTYK (human), sequence (Q6XUX3 whole entry, looked up): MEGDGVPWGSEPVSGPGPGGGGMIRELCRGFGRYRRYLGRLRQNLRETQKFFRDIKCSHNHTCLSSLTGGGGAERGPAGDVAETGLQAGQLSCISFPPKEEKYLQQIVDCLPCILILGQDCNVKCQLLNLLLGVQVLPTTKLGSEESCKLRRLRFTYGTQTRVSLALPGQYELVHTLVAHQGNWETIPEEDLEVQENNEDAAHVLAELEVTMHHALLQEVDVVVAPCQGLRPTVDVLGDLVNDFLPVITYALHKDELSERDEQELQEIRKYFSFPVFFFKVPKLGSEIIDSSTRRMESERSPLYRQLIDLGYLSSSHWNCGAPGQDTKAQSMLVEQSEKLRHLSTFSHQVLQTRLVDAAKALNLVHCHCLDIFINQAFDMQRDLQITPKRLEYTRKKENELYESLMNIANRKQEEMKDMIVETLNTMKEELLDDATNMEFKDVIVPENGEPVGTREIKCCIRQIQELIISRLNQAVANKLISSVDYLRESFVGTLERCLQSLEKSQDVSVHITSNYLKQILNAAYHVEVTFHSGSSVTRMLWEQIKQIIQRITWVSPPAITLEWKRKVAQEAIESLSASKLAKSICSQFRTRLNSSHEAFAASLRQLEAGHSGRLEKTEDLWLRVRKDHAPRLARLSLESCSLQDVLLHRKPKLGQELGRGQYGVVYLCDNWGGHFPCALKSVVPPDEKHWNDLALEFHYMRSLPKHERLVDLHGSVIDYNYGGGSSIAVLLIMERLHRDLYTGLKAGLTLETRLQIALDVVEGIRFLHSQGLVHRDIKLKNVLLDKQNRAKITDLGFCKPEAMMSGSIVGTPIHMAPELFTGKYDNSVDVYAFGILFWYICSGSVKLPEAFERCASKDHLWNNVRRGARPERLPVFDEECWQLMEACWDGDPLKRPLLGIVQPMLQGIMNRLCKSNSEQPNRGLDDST
PIK3CA (human), P42336 [E545A], sequence (P42336 whole entry E545A, looked up): as the sequence (P42336 whole entry I800L, looked up) above, with E545A, L800I counted along it
SGK3 (human), sequence (Q96BR1 whole entry, looked up): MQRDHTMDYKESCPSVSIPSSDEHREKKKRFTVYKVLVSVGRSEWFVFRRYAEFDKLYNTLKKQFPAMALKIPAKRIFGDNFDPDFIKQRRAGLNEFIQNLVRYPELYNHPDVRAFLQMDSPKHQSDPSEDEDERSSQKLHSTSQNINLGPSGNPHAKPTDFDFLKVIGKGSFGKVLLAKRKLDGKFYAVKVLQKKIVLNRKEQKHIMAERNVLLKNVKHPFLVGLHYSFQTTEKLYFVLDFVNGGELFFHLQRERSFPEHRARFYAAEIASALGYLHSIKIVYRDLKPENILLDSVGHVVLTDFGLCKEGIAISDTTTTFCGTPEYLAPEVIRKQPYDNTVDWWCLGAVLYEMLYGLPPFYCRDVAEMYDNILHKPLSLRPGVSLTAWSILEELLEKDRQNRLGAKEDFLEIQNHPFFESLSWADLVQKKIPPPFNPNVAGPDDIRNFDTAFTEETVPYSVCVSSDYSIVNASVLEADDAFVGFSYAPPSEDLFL

Structure (SMILES)	kinase still bound, per cent of control [1] [%]	kinase still bound, per cent of control [2] [%]	kinase still bound, per cent of control [3] [%]	kinase still bound, per cent of control [4] [%]	kinase still bound, per cent of control [5] [%]	kinase still bound, per cent of control [6] [%]	kinase still bound, per cent of control [7] [%]	kinase still bound, per cent of control [8] [%]	kinase still bound, per cent of control [9] [%]	kinase still bound, per cent of control [10] [%]	kinase still bound, per cent of control [11] [%]	kinase still bound, per cent of control [12] [%]	kinase still bound, per cent of control [13] [%]	kinase still bound, per cent of control [14] [%]	kinase still bound, per cent of control [15] [%]	kinase still bound, per cent of control [16] [%]	kinase still bound, per cent of control [17] [%]	kinase still bound, per cent of control [18] [%]	kinase still bound, per cent of control [19] [%]	kinase still bound, per cent of control [20] [%]	other results
CCN1CCN(Cc2ccc(Nc3ncc4c(n3)N(C)c3ccccc3C(=O)N4C)cc2C(F)(F)F)CC1	39	57	59	51	86	74	100	24	14	100	73	95	62	6.9	35	3.3	57	0.1	76	76	kinase still bound, per cent of control [21]: 100%; kinase still bound, per cent of control [22]: 98%; kinase still bound, per cent of control [23]: 67%; kinase still bound, per cent of control [24]: 73%; kinase still bound, per cent of control [25]: 100%; kinase still bound, per cent of control [26]: 6.2%; kinase still bound, per cent of control [27]: 100%; kinase still bound, per cent of control [28]: 74%; kinase still bound, per cent of control [29]: 100%; kinase still bound, per cent of control [30]: 3.2%; kinase still bound, per cent of control [31]: 12%; kinase still bound, per cent of control [32]: 100%; kinase still bound, per cent of control [33]: 100%; kinase still bound, per cent of control [34]: 55%; kinase still bound, per cent of control [35]: 7.1%; kinase still bound, per cent of control [36]: 100%; kinase still bound, per cent of control [37]: 0.55%; kinase still bound, per cent of control [38]: 25%; kinase still bound, per cent of control [39]: 15%
C=CC(=O)Nc1cc(NC(=O)c2ccc(C)c(NC(=O)c3ccno3)c2)cc(C(F)(F)F)c1	97	4.7	100	99	100	82	86	100	0.1	100	100	90	100	100	80	95	98	87	100	100	kinase still bound, per cent of control [21]: 88%; kinase still bound, per cent of control [22]: 100%; kinase still bound, per cent of control [23]: 100%; kinase still bound, per cent of control [24]: 79%; kinase still bound, per cent of control [25]: 100%; kinase still bound, per cent of control [26]: 86%; kinase still bound, per cent of control [27]: 95%; kinase still bound, per cent of control [28]: 81%; kinase still bound, per cent of control [29]: 83%; kinase still bound, per cent of control [30]: 78%; kinase still bound, per cent of control [31]: 93%; kinase still bound, per cent of control [32]: 91%; kinase still bound, per cent of control [33]: 98%; kinase still bound, per cent of control [34]: 94%; kinase still bound, per cent of control [35]: 100%; kinase still bound, per cent of control [36]: 100%; kinase still bound, per cent of control [37]: 100%; kinase still bound, per cent of control [38]: 76%; kinase still bound, per cent of control [39]: 83%
COc1cc(N2CCN(C)CC2)ccc1Nc1nc(N)c(C(=O)c2c(Cl)cccc2Cl)s1	100	100	100	72	100	76	66	85	98	24	100	100	100	80	100	100	80	8.2	100	99	kinase still bound, per cent of control [21]: 100%; kinase still bound, per cent of control [22]: 100%; kinase still bound, per cent of control [23]: 100%; kinase still bound, per cent of control [24]: 100%; kinase still bound, per cent of control [25]: 93%; kinase still bound, per cent of control [40]: 94%; kinase still bound, per cent of control [26]: 100%; kinase still bound, per cent of control [28]: 85%; kinase still bound, per cent of control [29]: 100%; kinase still bound, per cent of control [30]: 78%; kinase still bound, per cent of control [31]: 96%; kinase still bound, per cent of control [32]: 100%; kinase still bound, per cent of control [33]: 87%; kinase still bound, per cent of control [34]: 100%; kinase still bound, per cent of control [35]: 52%; kinase still bound, per cent of control [36]: 65%; kinase still bound, per cent of control [37]: 79%; kinase still bound, per cent of control [38]: 99%; kinase still bound, per cent of control [39]: 35%
